Data: patent publication US5635391A, “Isolated DNA encoding a nitrilase polypeptide, hosts containing, and expression thereof optionally assisted by a E. coli GroE chaperone polypeptide” (priority 1992, dated 1997)

Assays:
[1] = test system: E. coli TG1 pXL2035,2158; test: Nitrilase activity of recombinant strain E. coli TG1 pXL2035,2158; assay type: cell-based; details: no IPTG; whole cells; DW 0.06 g/l; 1 ml; pH 7.0; substrate 50 mM
Description: The activities of these strains, induced or non-induced, are measured on adiponitrile and 5-cyanovalerate at different pH values and are compared with the negative control strains: E. coli TG1, E. coli TG1 (pXL2035) and Pseudomonas putida G2081.
The cultures are carried out under the conditions described in Table 4. During the exponential growth phase, one of the two cultures of the recombinant strain is induced with 1 mM IPTG; after 2 h at 37° C., this culture is treated.
The conditions of the specific activity measurements and the results are collated in Table 5.
COMMON CONDITIONS: [substrate]=50 mM; T=25° C.; buffer 50 mM; kinetics over 90 min for 1 to 3 and over 120 min for 4 to 8.
ABBREVIATIONS: W=whole cells; S=sonicated cells; Ua=μmols of cyanovalerate produced/h; Ub=μmols of adipate produced/h; AdN=adiponitrile; CVA=5-cyanovalerate. DW=dry weight.

[2] = test system: E. coli (pXL2087); test: Activity of immobilized and free E. coli (pXL2087) cells on adiponitrile; assay type: cell-based; details: 25° C., pH 7, 50 mM adiponitrile
Description: The cells were fixed according to the following protocol:
The gram of cells was suspended in the polyazetidine solution. After homogenization, the resin was poured into the cell suspension. The whole was stirred with a spatula and then left to dry for 18 h, open to the air, under a hood. 4 ml or 1.3 g of biocatalyst were thus collected. The activities of the immobilized and free cells were determined at 25° C. and pH 7 on a 50 mM solution of adiponitrile. They are respectively 30 and 110 μmol of […]/h/mg of cells DW, from which a fixing yield of 26% is deduced.

N#CCCCCC#N [Adiponitrile, adiponitrile]
Activity Ua [1]: 1500 μmols of cyanovalerate produce
activity of the free cells [2]: 110 μmol of 2-cyanovalerate/h/mg of cells DW
activity of the immobilized cells [2]: 30 μmol of 2-cyanovalerate/h/mg of cells DW
